Test results published in US10894784B2, “Heteroarylbenzimidazole compounds” (BAYER PHARMA AKTIENGESELLSCHAFT, priority 2015, dated 2021).

target: TBK1 (Homo sapiens (Human), UniProt Q9UHD2); test: TBK1 low ATP kinase assay (in vitro assay 1); format: biochemical; settings: in vitro assay 1, read-out: TBK1 low ATP kinase assay IC50
Sequence (Q9UHD2 whole entry): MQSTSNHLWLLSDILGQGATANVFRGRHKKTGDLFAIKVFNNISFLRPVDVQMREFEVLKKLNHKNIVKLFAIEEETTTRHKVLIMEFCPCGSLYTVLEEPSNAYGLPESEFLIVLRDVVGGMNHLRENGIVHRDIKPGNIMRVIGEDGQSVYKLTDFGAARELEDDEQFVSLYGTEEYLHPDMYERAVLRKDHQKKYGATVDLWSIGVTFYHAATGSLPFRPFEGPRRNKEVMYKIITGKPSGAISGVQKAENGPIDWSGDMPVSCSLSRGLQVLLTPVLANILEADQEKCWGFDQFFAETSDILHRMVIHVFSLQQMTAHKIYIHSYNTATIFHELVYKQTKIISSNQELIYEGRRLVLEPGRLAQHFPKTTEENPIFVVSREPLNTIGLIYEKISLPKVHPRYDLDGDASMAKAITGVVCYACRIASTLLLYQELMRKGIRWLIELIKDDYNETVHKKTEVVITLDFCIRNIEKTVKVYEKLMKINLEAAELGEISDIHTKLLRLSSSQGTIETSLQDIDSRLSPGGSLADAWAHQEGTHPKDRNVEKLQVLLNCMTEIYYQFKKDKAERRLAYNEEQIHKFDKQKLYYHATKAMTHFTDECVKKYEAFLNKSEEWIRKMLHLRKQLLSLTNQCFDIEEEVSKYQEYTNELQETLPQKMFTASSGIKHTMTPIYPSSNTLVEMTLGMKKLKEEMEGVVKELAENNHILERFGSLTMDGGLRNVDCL

| Compound | IC50 |
| --- | --- |
| Cc1ncc(C)c(-c2ccc3nc(Nc4cc(CN5CCN(C(=O)CC(F)(F)F)CC5)ccn4)[nH]c3c2)n1 [Example 33.02, 1-{4-[(2-{[6-(2,5-dimethylpyrimidin-4-yl)-1H-benzimidazol-2-yl]amino}pyridin-4-yl)methyl]piperazin-1-yl}-3,3,3-trifluoropropan-1-one] | 1590 nM |
| Cc1ncc(C)c(-c2ccc3nc(Nc4cc(CN5CCN(C(=O)C6CC6)CC5)ccn4)[nH]c3c2)n1 [Example 33.03, cyclopropyl{4-[(2-{[6-(2,5-dimethylpyrimidin-4-yl)-1H-benzimidazol-2-yl]amino}pyridin-4-yl)methyl]piperazin-1-yl}methanone] | 1500 nM |
| Cc1ncc(C)c(-c2ccc3nc(Nc4cc(CN5CCN(C(=O)C6CCC6)CC5)ccn4)[nH]c3c2)n1 [Example 33.04, cyclobutyl{4-[(2-{[6-(2,5-dimethylpyrimidin-4-yl)-1H-benzimidazol-2-yl]amino}pyridin-4-yl)methyl]piperazin-1-yl}methanone] | 2120 nM |
| COc1cc(-c2ccc3nc(Nc4cc(CN5CCN(C(=O)OC(C)(C)C)CC5)ccn4)[nH]c3c2)ncn1 [Example 34.01.01, tert-butyl 4-[(2-{[6-(6-methoxypyrimidin-4-yl)-1H-benzimidazol-2-yl]amino}pyridin-4-yl)methyl]piperazine-1-carboxylate] | 50.6 nM |
| COc1cncnc1-c1ccc2nc(Nc3cc(CN4CCN(C(=O)CC(F)(F)F)CC4)ccn3)[nH]c2c1 [Example 35.01.01, 3,3,3-trifluoro-1-{4-[(2-{[6-(5-methoxypyrimidin-4-yl)-1H-benzimidazol-2-yl]amino}pyridin-4-yl)methyl]piperazin-1-yl}propan-1-one] | 18.9 nM |
| COc1cncnc1-c1ccc2nc(Nc3cc(CN4CCN(C(=O)C5CC5)CC4)ccn3)[nH]c2c1 [Example 35.01.02, cyclopropyl{4-[(2-{[6-(5-methoxypyrimidin-4-yl)-1H-benzimidazol-2-yl]amino}pyridin-4-yl)methyl]piperazin-1-yl}methanone] | 18 nM |
| COc1cncnc1-c1ccc2nc(Nc3cc(CN4CCN(C(=O)N(C)C)CC4)ccn3)[nH]c2c1 [Example 35.01.03, 4-[(2-{[6-(5-methoxypyrimidin-4-yl)-1H-benzimidazol-2-yl]amino}pyridin-4-yl)methyl]-N,N-dimethylpiperazine-1-carboxamide] | 59.1 nM |
| CCN(CC)C(=O)N1CCN(Cc2ccnc(Nc3nc4ccc(-c5ncncc5OC)cc4[nH]3)c2)CC1 [Example 35.01.04, N,N-diethyl-4-[(2-{[6-(5-methoxypyrimidin-4-yl)-1H-benzimidazol-2-yl]amino}pyridin-4-yl)methyl]piperazine-1-carboxamide] | 26.9 nM |
| COc1cncnc1-c1ccc2nc(Nc3cc(CN4CCN(C(=O)N5CCCC5)CC4)ccn3)[nH]c2c1 [Example 35.01.05, {4-[(2-{[6-(5-methoxypyrimidin-4-yl)-1H-benzimidazol-2-yl]amino}pyridin-4-yl)methyl]piperazin-1-yl}(pyrrolidin-1-yl)methanone] | 48 nM |
| COc1cncnc1-c1ccc2nc(Nc3cc(CN4CCN(C(=O)N5CCCCC5)CC4)ccn3)[nH]c2c1 [Example 35.01.06, {4-[(2-{[6-(5-methoxypyrimidin-4-yl)-1H-benzimidazol-2-yl]amino}pyridin-4-yl)methyl]piperazin-1-yl}(piperidin-1-yl)methanone] | 47.9 nM |
| COc1cncnc1-c1ccc2nc(Nc3cc(CN4CCN(C(=O)N5CCOCC5)CC4)ccn3)[nH]c2c1 [Example 35.01.07, {4-[(2-{[6-(5-methoxypyrimidin-4-yl)-1H-benzimidazol-2-yl]amino}pyridin-4-yl)methyl]piperazin-1-yl}(morpholin-4-yl)methanone] | 77.3 nM |
| CCS(=O)(=O)N1CCN(Cc2ccnc(Nc3nc4ccc(-c5ncncc5OC)cc4[nH]3)c2)CC1 [Example 35.01.08, N-(4-{[4-(ethylsulfonyl)piperazin-1-yl]methyl}pyridin-2-yl)-6-(5-methoxypyrimidin-4-yl)-1H-benzimidazol-2-amine] | 24.3 nM |
| COc1cncnc1-c1ccc2nc(Nc3cc(CN4CCN(S(=O)(=O)CCC(F)(F)F)CC4)ccn3)[nH]c2c1 [Example 35.01.09, 6-(5-methoxypyrimidin-4-yl)-N-[4-({4-[(3,3,3-trifluoropropyl)sulfonyl]piperazin-1-yl}methyl)pyridin-2-yl]-1H-benzimidazol-2-amine] | 40.6 nM |
| COCCCS(=O)(=O)N1CCN(Cc2ccnc(Nc3nc4ccc(-c5ncncc5OC)cc4[nH]3)c2)CC1 [Example 35.01.10, N-[4-({4-[(3-methoxypropyl)sulfonyl]piperazin-1-yl}methyl)pyridin-2-yl]-6-(5-methoxypyrimidin-4-yl)-1H-benzimidazol-2-amine] | 35 nM |
| COCCOCCS(=O)(=O)N1CCN(Cc2ccnc(Nc3nc4ccc(-c5ncncc5OC)cc4[nH]3)c2)CC1 [Example 35.01.11, N-{4-[(4-{[2-(2-methoxyethoxy)ethyl]sulfonyl}piperazin-1-yl)methyl]pyridin-2-yl}-6-(5-methoxypyrimidin-4-yl)-1H-benzimidazol-2-amine] | 28.6 nM |
| COc1cncnc1-c1ccc2nc(Nc3cc(CN4CCN(S(=O)(=O)C5CC5)CC4)ccn3)[nH]c2c1 [Example 35.01.12, N-(4-{[4-(cyclopropylsulfonyl)piperazin-1-yl]methyl}pyridin-2-yl)-6-(5-methoxypyrimidin-4-yl)-1H-benzimidazol-2-amine] | 32.4 nM |
| COc1cncnc1-c1ccc2nc(Nc3cc(CN4CCN(S(=O)(=O)C5CCCCC5)CC4)ccn3)[nH]c2c1 [Example 35.01.13, N-(4-{[4-(cyclohexylsulfonyl)piperazin-1-yl]methyl}pyridin-2-yl)-6-(5-methoxypyrimidin-4-yl)-1H-benzimidazol-2-amine] | 60.9 nM |
| COc1cncnc1-c1ccc2nc(Nc3cc(CN4CCN(S(=O)(=O)C5CCOCC5)CC4)ccn3)[nH]c2c1 [Example 35.01.14, 6-(5-methoxypyrimidin-4-yl)-N-(4-{[4-(tetrahydro-2H-pyran-4-ylsulfonyl)piperazin-1-yl]methyl}pyridin-2-yl)-1H-benzimidazol-2-amine] | 22.8 nM |
| COc1cncnc1-c1ccc2nc(Nc3cc(CN4CCN(S(=O)(=O)N(C)C)CC4)ccn3)[nH]c2c1 [Example 35.01.15, 4-[(2-{[6-(5-methoxypyrimidin-4-yl)-1H-benzimidazol-2-yl]amino}pyridin-4-yl)methyl]-N,N-dimethylpiperazine-1-sulfonamide] | 38 nM |
| COCC1CCN(S(=O)(=O)N2CCN(Cc3ccnc(Nc4nc5ccc(-c6ncncc6OC)cc5[nH]4)c3)CC2)CC1 [Example 35.01.16, N-{4-[(4-{[4-(methoxymethyl)piperidin-1-yl]sulfonyl}piperazin-1-yl)methyl]pyridin-2-yl}-6-(5-methoxypyrimidin-4-yl)-1H-benzimidazol-2-amine] | 45.9 nM |
| COc1cncnc1-c1ccc2nc(Nc3cc(CN4CCN(S(=O)(=O)N5CCC(OC)CC5)CC4)ccn3)[nH]c2c1 [Example 35.01.17, N-[4-({4-[(4-methoxypiperidin-1-yl)sulfonyl]piperazin-1-yl}methyl)pyridin-2-yl]-6-(5-methoxypyrimidin-4-yl)-1H-benzimidazol-2-amine] | 39.2 nM |
| COc1cncnc1-c1ccc2nc(Nc3cc(CN4CCN(S(=O)(=O)N5CC(C)OC(C)C5)CC4)ccn3)[nH]c2c1 (stereo not drawn) [Example 35.01.18, N-[4-({4-[(2,6-dimethylmorpholin-4-yl)sulfonyl]piperazin-1-yl}methyl)pyridin-2-yl]-6-(5-methoxypyrimidin-4-yl)-1H-benzimidazol-2-amine] | 41.8 nM |
| Cn1cc(-c2ccc3nc(Nc4cc(CN5CCN(C(=O)CC(F)(F)F)CC5)ccn4)[nH]c3c2)cn1 [Example 37.01, 3,3,3-trifluoro-1-{4-[(2-{[6-(1-methyl-1H-pyrazol-4-yl)-1H-benzimidazol-2-yl]amino}pyridin-4-yl)methyl]piperazin-1-yl}propan-1-one] | 55.3 nM |
| Cn1cc(-c2ccc3nc(Nc4cc(CN5CCN(C(=O)CC6CC6)CC5)ccn4)[nH]c3c2)cn1 [Example 37.02, 2-cyclopropyl-1-{4-[(2-{[6-(1-methyl-1H-pyrazol-4-yl)-1H-benzimidazol-2-yl]amino}pyridin-4-yl)methyl]piperazin-1-yl}ethanone] | 62.5 nM |
| Cn1cc(-c2ccc3nc(Nc4cc(CN5CCN(C(=O)C6CC6)CC5)ccn4)[nH]c3c2)cn1 [Example 37.03, cyclopropyl{4-[(2-{[6-(1-methyl-1H-pyrazol-4-yl)-1H-benzimidazol-2-yl]amino}pyridin-4-yl)methyl]piperazin-1-yl}methanone] | 52.7 nM |
| Cn1cc(-c2ccc3nc(Nc4cc(CN5CCN(C(=O)C6CCC6)CC5)ccn4)[nH]c3c2)cn1 [Example 37.04, cyclobutyl{4-[(2-{[6-(1-methyl-1H-pyrazol-4-yl)-1H-benzimidazol-2-yl]amino}pyridin-4-yl)methyl]piperazin-1-yl}methanone] | 73.9 nM |
| CCn1cc(-c2ccc3nc(Nc4cc(CN5CCN(C(=O)CC(F)(F)F)CC5)ccn4)[nH]c3c2)cn1 [Example 38.02, 1-{4-[(2-{[6-(1-ethyl-1H-pyrazol-4-yl)-1H-benzimidazol-2-yl]amino}pyridin-4-yl)methyl]piperazin-1-yl}-3,3,3-trifluoropropan-1-one] | 50.4 nM |
| CCn1cc(-c2ccc3nc(Nc4cc(CN5CCN(C(=O)C6CC6)CC5)ccn4)[nH]c3c2)cn1 [Example 38.03, cyclopropyl{4-[(2-{[6-(1-ethyl-1H-pyrazol-4-yl)-1H-benzimidazol-2-yl]amino}pyridin-4-yl)methyl]piperazin-1-yl}methanone] | 55.8 nM |
| O=C(CC(F)(F)F)N1CCN(Cc2ccnc(Nc3nc4ccc(-c5cnn(CC6CC6)c5)cc4[nH]3)c2)CC1 [Example 39.01.02, 1-(4-{[2-({6-[1-(cyclopropylmethyl)-1H-pyrazol-4-yl]-1H-benzimidazol-2-yl}amino)pyridin-4-yl]methyl}piperazin-1-yl)-3,3,3-trifluoropropan-1-one] | 5.89 nM |
| O=C(C1CC1)N1CCN(Cc2ccnc(Nc3nc4ccc(-c5cnn(CC6CC6)c5)cc4[nH]3)c2)CC1 [Example 39.01.03, cyclopropyl(4-{[2-({6-[1-(cyclopropylmethyl)-1H-pyrazol-4-yl]-1H-benzimidazol-2-yl}amino)pyridin-4-yl]methyl}piperazin-1-yl)methanone] | 5.35 nM |
